# Reference: patent US11192932B2, “Heparin-binding domain of IGFBP-2 in the treatment of metabolic disorders” (Amolyt Pharma, priority 2018, dated 2021)
# Entries after “also recorded” stand apart in the source; their conditions may differ. No end group written: not given here. *: point of attachment. Stearoyl = CCCCCCCCCCCCCCCCCC(=O)*
# How the values were obtained:
# ob/ob mice [1] = test: Intraperitoneal glucose tolerance test (IPGTT) in ob/ob mice after 15 days of treatment; type: in vivo, mouse; settings: 3 mg/kg subcutaneously twice daily for 15 days, overnight fasted, glucose 1 g/kg i.p., vs vehicle
# Method: Data shown are blood glucose levels (Mean±SEM) 45 min after intraperitoneal glucose tolerance test (IPGTT). (n=5 in each group; ***: p value <0.001).
# After being acclimatized 7 days to the laboratory conditions, nine-week-old male B6. V-Lepob/J. mice (Charles River) were subcutaneously administered with vehicle (NaCl 0.9%) or with a peptide as set forth in SEQ ID NO: 73 (C18:0-HLGLEEPKK) at 3 mg/kg (n=5 animals for each group) twice daily for 15 days. On day 15, fasted (overnight) mice were injected intraperitoneally with glucose at 1 g/kg. Plasma blood glucose (expressed as mmol/L) was recorded at 45 minutes post glucose injection.
# ob/ob mice [2] = test: Glucose telemetry and IPGTT in glucose-telemetered ob/ob mice, 28 days of treatment; type: in vivo, mouse; settings: for glucose intolerance (3-hour IPGTT profile): glucose telemetered ob/ob mice, 1 and 3 mg/kg s.c. twice daily, 28 days, glucose 1 g/kg i.p., vs vehicle; for 16-hour mean blood glucose levels: day 27, normal fed conditions, vs baseline (Day -1) and vehicle
# Method: FIG. 2A: 3-hour intraperitoneal glucose tolerance test profiles after 28 days of acylated HBD1 (3-11) fragment treatment. (n=5-8 in each group; p value <0.0001 at both doses vs VHL), Two-way ANOVA with multiple comparison, ****p<0.0001; FIG. 2B: fasting blood glucose levels (average value within 10 min prior to IPGTT) after 28 days of acylated HBD1 (3-11) fragment treatment. (n=5-8 in each group; p value <0.005 at the 3 mg/kg dose vs VHL), Unpaired two-tailed t-test vs VHL, ***p<0.005; FIG. 2C: Areas under the curve of the 3-hour intraperitoneal glucose tolerance test profiles after 28 days of acylated HBD1 (3-11) fragment treatment. (n=5-8 in each group), Unpaired two-tailed t-test vs VHL,*p<0.05, ****p<0.0001.
# FIG. 3A: 16-hour mean blood glucose levels before (Day −1) and after 27 days of acylated HBD1 (3-11) fragment treatment. (n=5-8 in each group; **p value <0.001 at the 3 mg/kg dose vs VHL); FIG. 3B: Change from baseline in 16-hour mean blood glucose level after 27 days of acylated HBD1 (3-11) fragment treatment. (n=5-8 in each group; **p value <0.01 at the 3 mg/kg dose vs VHL).
# To further assess the effects of HBD1 peptides on glucose and insulin metabolisms, basal blood glucose and glucose response to an intraperitoneal glucose tolerance test (IPGTT) were assessed in glucose-telemetered obese ob/ob mice after twice daily administration of HBD peptides for 28 consecutive days. Implantation of glucose telemetry device (HD-XG, Data Science International) was carried out according to known protocols.
# A dose of HBD peptide fragment of SEQ ID NO: 73 (C18:0-HLGLEEPKK) was administered twice daily at 8-hour±1 hour interval between the two daily administrations. 24 V-Lepob/J (Ob/Ob) male mice (The Jackson Laboratory, Farmington, Conn. USA) were administered subcutaneously with vehicle (NaCl 0.9%) (Control group) or with the peptide at 1 and 3 mg/kg (Test groups) (n=5-8 animals for each group) twice daily for 28 days. The first day of dosing was designated as Day 1. Bolus injection was carried out using a sterile syringe and the needle was introduced subcutaneously, 2 to 4 injection sites were used in rotation. The hair of the animals on the injection area was clipped prior to the first injection and then as necessary during the treatment period. The volume administered was 5 mL/kg/administration. Individual dose volumes were calculated using the latest body weight. On day 27, 16-hour mean blood glucose levels were assessed in normal fed conditions. On day 28, fasted (4 hours) mice were injected intraperitoneally with glucose at 1 g/kg. Plasma blood glucose profile (expressed as mg/dL) was recorded every minute up to 3-hour post glucose injection.
# Intraperitoneal glucose tolerance test (IPGTT)—On the morning of the IGPTT day (day 28), 2-hour fasted animals were treated with vehicle or with the HBD fragment. Glucose solution was administered 2 hours±15 minutes post-dosing (vehicle or a peptide as set forth in SEQ ID NO: 73 (C18:0-HLGLEEPKK). Blood glucose was monitored from 10 minutes before (fasting condition) to 3-hour post-glucose challenge. Food was re-introduced 4 hours post-glucose challenge. The second treatment of the day (the HBD fragment or vehicle) was performed 2 hours after food re-introduction.
# Akt = Akt phosphorylation (immunoblot anti-Akt pS473) in C2C12 myotubes; type: cell-based, mouse; settings: peptide incubated 8 hours (FIG. 6)
# Method: In particular: HBD1 SEQ ID NO: 73 (C18:0-HLGLEEPKK). The Akt pathway is utilized by both insulin and IGF1 to ultimately induce GLUT4 translocation to the cell membrane to facilitate the uptake and metabolism of glucose.
# For signaling studies the cells were prepared the same way except 6-well plates were used. After 6 days incubation in differentiating medium, the cells were washed with serum-free medium. The various treatments were then added in serum free medium containing 0.1% BSA. HBD1 peptides were added and incubated for 8 hours. When utilizing IGF-I, incubation was for 15 minutes after IGF-1 addition. Following incubation the cells were lysed in RIPA buffer and sonicated. The cell lysate was centrifuged and the supernatant analyzed for either Akt or AMPK by SDS PAGE using a 10% gel followed by immunoblotting with the appropriate antibody.
# To examine the intracellular transduction pathways utilized by the HBD1 peptides, following treatment with HBD1 peptide SEQ ID NO: 73 (C18:0-HLGLEEPKK), cell lysate proteins were separated by SDS PAGE and immunoblotted with anti-Akt pS473 antibodies.
# [3] = listed as acylated HBD1 (3-11) fragment
substance,measurement,setting,value
C18:0-HLGLEEPKK (Stearoyl-HLGLEEPKK) [SEQ ID NO: 73],blood glucose levels 45 min after intraperitoneal glucose tolerance test (IPGTT),ob/ob mice [1],reduced the plasma glucose levels
same,blood glucose levels 45 min after intraperitoneal glucose tolerance test (IPGTT),ob/ob mice [1]; [3],improves glucose intolerance
same,glucose intolerance (3-hour IPGTT profile),ob/ob mice [2],improved glucose intolerance in a dose-dependent manner
same,glucose intolerance (3-hour IPGTT profile),ob/ob mice [2]; [3],improves glucose intolerance
same,effect on fasting glucose levels and glucose excursion following IPGTT at the high dose,"ob/ob mice [2]; ob/ob mice, 3 mg/kg twice daily, 4 weeks",marked effect
same,glucose excursion following IPGTT,"ob/ob mice [2]; ob/ob mice, after 4 weeks (28 days), 1 and 3 mg/kg twice daily",decreased
same,fasting glucose levels,"ob/ob mice [2]; ob/ob mice, after 4 weeks (28 days), average within 10 min prior to IPGTT, 1 and 3 mg/kg twice daily",decreased fasting glucose levels
same,16-hour mean blood glucose levels,ob/ob mice [2]; ob/ob mice,markedly decrease 16-hour average blood glucose levels
same,16-hour mean blood glucose levels,"ob/ob mice [2]; ob/ob mice, listed as acylated HBD1 (3-11) fragment",improves glucose intolerance
same,phosphorylated Akt (pS473),Akt,dose-related increase in phosphorylated Akt; also recorded: dose-dependent phosphorylation (activation) of the Akt pathway
